Results as given in patent publication US9708301B2, “Crystalline forms of afatinib monomaleate, preparation methods and pharmaceutical compositions thereof” (priority 2015, dated 2017).
Each block holds one molecule with its values, some of them ahead of it.

Key:
Assay type in all cases: physicochemical
[1] = Solubility in pure water (water added progressively until the sample completely dissolved); details: 25° C. (room temperature)
Description: Take 5 mg of the crystalline form of Afatinib dimaleate in the prior art prepared in preparation example 1 and the crystalline Form N of Afatinib monomaleate prepared in example 1 as the sample respectively, pure water was added into each sample progressively at 25° C. until the sample completely dissolved, then calculate the solubility of the sample according to the weight of the sample and water.

[2] = Dynamic vapour sorption (DVS) isothermal adsorption; details: relative humidity 10%-80%
Description: Dynamic vapour sorption (DVS) data is collected using TA Instruments Q5000 TGA, the instrument control software is Thermal Advantage and the analytical software is Universal Analysis. Usually, 1-10 mg of the specimen is placed in a platinum pan, weight changes of the specimen are recorded by TA software within the process of the relative humidity change from 10% to 80% to 10%. Depending on specific situations, different sorption and desorption procedures may be used. An isothermal adsorption curve can be generated by the procession of software.

[3] = Hygroscopicity of prior-art forms (researches by the present inventors)

solubility ([1]; listed as crystalline Form N of Afatinib monomaleate): 126.9 mg/mL | weight change of the salt within the relative humidity range of 10%-80% ([2]; listed as Example 1): 2.1%
Structure (SMILES): CN(C)C/C=C/C(=O)Nc1cc2c(Nc3ccc(F)c(Cl)c3)ncnc2cc1O[C@H]1CCOC1 [Afatinib monomaleate]

solubility ([1]; listed as crystalline form of Afatinib dimaleate in the prior art): 7.5 mg/mL | weight change of the salt within the relative humidity range of 10%-80% ([2]; listed as Preparation Example 1): 2.6%
Structure (SMILES): CN(C)C/C=C/C(=O)Nc1cc2c(Nc3ccc(F)c(Cl)c3)ncnc2cc1O[C@H]1CCOC1 [Afatinib dimaleate]

hygroscopicity [3]: serious hygroscopicity issues
Structure (SMILES): CN(C)C/C=C/C(=O)Nc1cc2c(Nc3ccc(F)c(Cl)c3)ncnc2cc1O[C@H]1CCOC1 [Form B of Afatinib dimaleate, Afatinib dimaleate]
